Publication PMC10824102, “Identification of small molecule inhibitors of G3BP-driven stress granule formation” (The Journal of Cell Biology, 2024)

How the values were obtained:
[1] = biological target: T1, NTF2L domain of G3BP1 (GFP-NTF2L) interaction with caprin 1 and USP10 (Homo sapiens, UniProt Q13283); assay: Coimmunoprecipitation of GFP-NTF2L with caprin 1 and USP10 in HEK293T lysates; type: biochemical; settings: 25 and 50 μM, GFP IP
T1 construct: lysates expressing the NTF2L domain of G3BP1 (GFP-NTF2L); expressed in transfected cells; host or cells: HEK293T cells expressing GFP-NTF2L (lysate)
T1 sequence (Q13283 11-133 limits assumed): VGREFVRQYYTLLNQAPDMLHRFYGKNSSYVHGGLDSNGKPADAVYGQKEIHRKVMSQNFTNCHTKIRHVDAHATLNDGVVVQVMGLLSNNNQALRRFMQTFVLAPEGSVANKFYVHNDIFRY

[2] = biological target: T2, condensate formation by G3BP1 and RNA (Homo sapiens, UniProt Q13283); assay: In vitro LLPS, two-component system (G3BP1 and RNA); type: biochemical; settings: 20 μM G3BP1, 100 ng RNA, up to 166 μM compound
T2 construct: made in house; host or cells: E. coli BL21 (DE3)
T2 sequence (Q13283 whole entry): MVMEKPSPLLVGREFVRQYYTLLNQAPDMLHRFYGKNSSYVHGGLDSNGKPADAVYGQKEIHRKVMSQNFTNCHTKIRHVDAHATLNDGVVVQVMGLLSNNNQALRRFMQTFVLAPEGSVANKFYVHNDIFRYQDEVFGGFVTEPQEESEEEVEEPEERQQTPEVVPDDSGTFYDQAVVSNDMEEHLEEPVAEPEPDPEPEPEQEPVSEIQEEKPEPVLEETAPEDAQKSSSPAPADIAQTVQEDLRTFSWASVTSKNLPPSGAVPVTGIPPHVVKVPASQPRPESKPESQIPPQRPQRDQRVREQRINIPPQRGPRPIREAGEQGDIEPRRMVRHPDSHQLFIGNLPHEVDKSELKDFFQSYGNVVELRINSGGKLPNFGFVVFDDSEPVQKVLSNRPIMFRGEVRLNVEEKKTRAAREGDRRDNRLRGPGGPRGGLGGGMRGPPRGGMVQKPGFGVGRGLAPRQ
Experimental: LLPS assays were performed in 30 μl total volume at 25°C at pH 7.4 in buffer containing 37 mM Tris, pH 7.5, 116 mM NaCl, 0.33% NP-40, 2.6% glycerol, 0.5 mM DTT with 20 ng/μl total cellular RNA from U2OS cells and 1.425 μM G3BP1, 0.075 μM FLAG-GFP-G3BP1, and 1.5 μM caprin 1. Reactions were initiated by adding G3BP1/caprin 1 protein mix to cellular RNA, followed by 3 min of shaking at 450 rpm and then incubation for 70 min in the dark. For condensates formed with G3BP1 and RNA, 20 μM purified G3BP1 and 100 ng of total cellular RNA from HEK293T cells were added to a buffer consisting of 100 mM NaCl and 16.7 mM HEPES (pH 7.5) in the presence of the indicated dose of G3Ib or vehicle control.

[3] = biological target: T3, interaction between G3BP1 and endogenous USP10 (Homo sapiens, UniProt Q13283); assay: Coimmunoprecipitation of G3BP1-GFP with endogenous USP10 in U2OS lysates; type: biochemical; settings: increasing concentrations added to U2OS G3BP1-GFP lysates, GFP IP
T3 construct: expressed in transfected cells; host or cells: U2OS cells stably expressing G3BP1-GFP (lysate)
T3 sequence (Q13283 whole entry): as above
Experimental: U2OS cells expressing G3BP1-GFP were grown in 3-cm dishes to 100% confluency, at which point cells were collected and pelleted at 400 × g for 5 min. Pellets were either stored at −80°C or processed the same day by lysing with 200 μl in vivo lysis buffer (150 mM NaCl, 50 mM Tris [pH 7.5], 1 mM EDTA, 0.5% NP-40, and 10% glycerol, supplemented with 1 protease inhibitor tablet [11836170001; Roche]). Lysates were centrifuged at 13,000 × g at 4°C for 15 min, after which supernatants were transferred to a new tube and diluted with 200 μl lysis buffer containing indicated concentrations of G3I compounds. The mixture was then incubated with GFP-Trap (ChromoTek GFP-Trap Magnetic Agarose; Proteintech; gtma) for 2 h at 4°C. Beads were washed three times with lysis buffer, then incubated with 1× SDS sample buffer supplemented with 10% 2-mercaptoethanol, and boiled for 5 min at 95°C. Lysates were subjected to SDS-PAGE and then immunoblotted.
Samples were separated by SDS-PAGE and transferred to membranes. […] Membranes were visualized and quantified with an Odyssey Fc imaging system (LI-COR) and normalized to the amount of G3BP1 immunoprecipitated.

[4] = test system: stress granule formation in human iPSC-derived cortical neurons; assay: Stress granule formation in iPSC-derived cortical neurons (co-incubation); type: cell-based; settings: 50 μM co-incubated with or without 500 μM NaAsO2 for 60 min
Experimental: i3N iPSC clones were gifts from Michael E. Ward (National Institutes of Health, Bethesda, MD, USA) and were used to generate a G3BP1-mNeongreen knock-in iPSC line. iPS neurons were differentiated with a two-step protocol (predifferentiation and maturation) as previously described ([Wang et al., 2017]). For predifferentiation, iPSCs were incubated with 1 µg/ml doxycycline hyclate (Sigma-Aldrich) for 3 days at a density of 1.2 × 10^6 cells/well in six-well dishes coated with Matrigel in knockout DMEM (KO-DMEM)/F12 medium (Thermo Fisher Scientific) containing N2 supplement (Thermo Fisher Scientific), non-essential amino acids (NEAA; Thermo Fisher Scientific), GlutaMAX Supplement (Thermo Fisher Scientific), and Y-27632 ([…] Technologies). The medium was changed daily and Y-27632 was removed from day 2. For maturation, predifferentiated precursor cells were dissociated, counted, and subplated at 25 × 10^4 cells/ml on dishes coated with 50 μg/ml poly-L-ornithine in BrainPhys neuronal medium ([…] Technologies) containing N2 (Thermo Fisher Scientific), B-27, 20 ng/ml BDNF (PeproTech), 20 ng/ml GDNF (PeproTech), 500 µg/ml dibutyryl cyclic-AMP (Sigma-Aldrich), 200 nM L-ascorbic acid (Sigma-Aldrich), 1 µg/ml natural mouse laminin (Thermo Fisher Scientific), 1 μM Ara-C (Sigma-Aldrich), and 1 µg/ml doxycycline hyclate. Half-medium was changed every other day. […]

SMILES	interaction of NTF2L domain with caprin 1 and USP10 [1]	condensate formation by G3BP1 and RNA [2]	interaction between G3BP1 and endogenous USP10 [3]	spontaneous and arsenite-induced stress granule formation [4]
CC(NC(=O)C(NC(=O)C(NC(=O)CCC(C)(C)C)C(C)(C)O)C(C)c1ccccc1)C(=O)N1CCCC1c1ccccc1 (centres unmarked) [G3Ib]	dose-dependent reduction	unaffected	dose-dependent reduction	–
CC(NC(=O)C(NC(=O)C(NC(=O)CCC(C)(C)C)C(C)(C)O)C(C)c1ccccc1)C(=O)N1CCCC1c1ccccc1 (centres unmarked) [G3Ib′]	–	–	no such effect	–
COCCC(NC(=O)C(C)NC(=O)C(NC(=O)C(NC(=O)C(F)CC(C)(C)C)C(C)(C)O)C(C)c1ccccc1)C(=O)N(C)Cc1ccccc1 (centres unmarked) [G3Ia]	–	–	–	blocked both spontaneous and arsenite-induced stress granule formation
